# Measured values as given in patent US20040110265A1, “Recovery of enzyme activity from enveloped viruses” (priority 2001, published 2004).
# How the values were obtained:
# human plasma RT = assay: Selective destruction of endogenous RT activity in plasma, protocol I; format: biochemical; conditions: EDTA plasma with disrupted lymphocytes, 1 hour at room temperature
# Procedure: EDTA plasma with disrupted lymphocytes from a healthy blood donor and FIV diluted in inactivated foetal calf serum (totally devoid of plasma RT activity) were incubated for 1 hour at room temperature with indicated concentration of: A) 5,5′-dithiobis-(2-nitrobensoic acid), B) thimerosal. The samples were separated according to “Protocol for determination of retroviral RT from material which contains RT blocking antibodies”. The RT activities recovered were determined with an RT assay (Cavidi HS-kit Lenti RT).
# [1] = target: Recombinant wild type HIV 1 RT (Human immunodeficiency virus type 1 group M subtype B, UniProt P04585); conditions: in foetal calf serum, 60 minutes at 22° C.
# Procedure: (§1) Recombinant wild type HIV 1 RT (▪), Recombinant RT from a Nevirapine resistant HIV 1 mutant (Y181C) (⋄), Jaagsiekte virus (JSV) RT from a sheep lung cancer (▾), […] (FIV) RT (∘), Bovine Leukaemia virus (BLV) RT (♦) and Porcine Endogenous Retrovirus (PERV) RT (●)derived from cell culture were dilute in heat inactivated foetal calf serum. The different virus enzyme preparations and an EDTA plasma sample from a healthy blood donor (□) were incubated with indicated thimerosal concentration at room temperature (22° C.) for 60 minutes. All the samples were diluted 100 fold in an RT assay compatible buffer and the residual RT activity in each sample was then determined. Three RT assays, each adapted to the type of RT measured were used: HIV 1, JSV, and FIV RTs were measured with Cavidi® HS kit Lenti RT BLV RT with Cavidi® HS kit HTLV RT and PERV and human plasma RT with Cavidi® HS kit Mn^2+ RT.
# [2] = target: Recombinant RT from a Nevirapine resistant HIV 1 mutant (Y181C) (Human immunodeficiency virus type 1 group M subtype B, UniProt P04585, Y768C); conditions: in foetal calf serum, 60 minutes at 22° C.
# Procedure: as §1
# [3] = target: Jaagsiekte virus (JSV) RT (Sheep pulmonary adenomatosis virus, UniProt P31623); conditions: in foetal calf serum, 60 minutes at 22° C.
# Procedure: as §1
# FIV RT = conditions: in foetal calf serum, 60 minutes at 22° C.
# Procedure: as §1
# human plasma polymerase = assay: Resurrection of plasma polymerase activity after treatment with cysteine-modifying agents; format: biochemical
# Procedure: A set of human plasma samples (60% plasma in water) was first incubated with 3 mM of indicated cysteine-modifying substance or water (as control) at room temperature for 1 hour. Serial dilutions of five potentially reactivating substances were then added and the samples were incubated for another hour. Each sample was finally diluted 1:20 and residual RT activity was determined with Cavidi® HS kit Lenti RT. The total reduction in substance concentration between sample incubation and RT assay was 200 times. The RT activities recovered were recalculated into percent of the activity of a control consisting of plasma incubated in absence of additions during both incubation steps.
# Jaagsiekte virus (JSV) RT, sequence (P31623 866-1446 limits assumed): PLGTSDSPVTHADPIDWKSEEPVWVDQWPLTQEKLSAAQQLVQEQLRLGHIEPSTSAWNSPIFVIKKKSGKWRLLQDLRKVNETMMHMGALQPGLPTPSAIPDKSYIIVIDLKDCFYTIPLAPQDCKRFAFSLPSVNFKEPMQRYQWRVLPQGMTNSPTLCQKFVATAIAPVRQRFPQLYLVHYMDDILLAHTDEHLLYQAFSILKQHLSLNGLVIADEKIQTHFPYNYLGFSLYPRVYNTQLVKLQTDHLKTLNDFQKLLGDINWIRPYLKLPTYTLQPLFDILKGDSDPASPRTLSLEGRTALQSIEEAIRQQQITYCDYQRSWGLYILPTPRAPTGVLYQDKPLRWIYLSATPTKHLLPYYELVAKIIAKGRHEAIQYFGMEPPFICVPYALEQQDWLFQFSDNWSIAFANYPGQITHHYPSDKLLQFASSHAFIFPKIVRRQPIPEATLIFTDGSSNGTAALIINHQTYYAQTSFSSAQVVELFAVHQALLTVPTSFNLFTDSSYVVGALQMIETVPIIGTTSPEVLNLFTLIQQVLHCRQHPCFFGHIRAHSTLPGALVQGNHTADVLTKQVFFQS
smiles,measurement,setting,value
C[CH2][Hg][S]c1ccccc1C(=O)[O-].[Na+] [Thimerosal],Concentration that totally eliminated the human plasma RT activity,human plasma RT,> 3 mM
same,Sensitivity of enzyme to thimerosal treatment,[1],totally resistant
same,Sensitivity of enzyme to thimerosal treatment,[2],most sensitive
same,Sensitivity of enzyme to thimerosal treatment,[3],totally resistant
same,Sensitivity of enzyme to thimerosal treatment,FIV RT,most sensitive
same,Conditions required to reactivate polymerase activity treated with the agent,"human plasma polymerase; 3 mM agent, then reactivating substances",quite easily reactivated
same,Polymerase activity after second incubation with DTT (% of control),"human plasma polymerase; 3 mM destroying agent first, 1.1 mM DTT",84%
same,Polymerase activity after second incubation with MSA (% of control),"human plasma polymerase; 3 mM destroying agent first, 1.1 mM MSA",17%
same,Polymerase activity after second incubation with cysteamine (% of control),"human plasma polymerase; 3 mM destroying agent first, 1.1 mM cysteamine",0%
same,Polymerase activity after second incubation with cysteine (% of control),"human plasma polymerase; 3 mM destroying agent first, 1.1 mM cysteine",4%
same,Polymerase activity after second incubation with glutathione (% of control),"human plasma polymerase; 3 mM destroying agent first, 1.1 mM glutathione",12%
same,Polymerase activity after second incubation with DTT (% of control),"human plasma polymerase; 3 mM destroying agent first, 3.3 mM DTT",248%
same,Polymerase activity after second incubation with MSA (% of control),"human plasma polymerase; 3 mM destroying agent first, 3.3 mM MSA",19%
same,Polymerase activity after second incubation with cysteamine (% of control),"human plasma polymerase; 3 mM destroying agent first, 3.3 mM cysteamine",0%
same,Polymerase activity after second incubation with cysteine (% of control),"human plasma polymerase; 3 mM destroying agent first, 3.3 mM cysteine",14%
same,Polymerase activity after second incubation with glutathione (% of control),"human plasma polymerase; 3 mM destroying agent first, 3.3 mM glutathione",21%
same,Polymerase activity after second incubation with DTT (% of control),"human plasma polymerase; 3 mM destroying agent first, 10 mM DTT",377%
same,Polymerase activity after second incubation with MSA (% of control),"human plasma polymerase; 3 mM destroying agent first, 10 mM MSA",7.3%
same,Polymerase activity after second incubation with cysteamine (% of control),"human plasma polymerase; 3 mM destroying agent first, 10 mM cysteamine",2%
same,Polymerase activity after second incubation with cysteine (% of control),"human plasma polymerase; 3 mM destroying agent first, 10 mM cysteine",37%
same,Polymerase activity after second incubation with glutathione (% of control),"human plasma polymerase; 3 mM destroying agent first, 10 mM glutathione",37%
same,Polymerase activity after second incubation with DTT (% of control),"human plasma polymerase; 3 mM destroying agent first, 30 mM DTT",448%
same,Polymerase activity after second incubation with MSA (% of control),"human plasma polymerase; 3 mM destroying agent first, 30 mM MSA",3.4%
same,Polymerase activity after second incubation with cysteamine (% of control),"human plasma polymerase; 3 mM destroying agent first, 30 mM cysteamine",1%
same,Polymerase activity after second incubation with cysteine (% of control),"human plasma polymerase; 3 mM destroying agent first, 30 mM cysteine",68%
same,Polymerase activity after second incubation with glutathione (% of control),"human plasma polymerase; 3 mM destroying agent first, 30 mM glutathione",7%
same,Polymerase activity after second incubation with water (% of control),"human plasma polymerase; 3 mM destroying agent first, water in second incubation",0%
